In US7951232B2, “Surface coating compositions and methods” (Elevance Renewable Sciences, Inc., priority 2006, dated 2011):

Experiments:
[1] = tested on: Candida albicans, ATCC 10231; experiment: Time-Kill Procedure (ASTM), rate of kill; assay type: cell-based
Experimental: (§1) The rate of kill for these organisms upon exposure to 9-decenoic acid was determined using the American Society for Testing and Materials (ASTM) procedure entitled “Standard Test Method for the Assessment of Microbiocidal Activity of Test Materials Using a Time-Kill Procedure”, October 1998. This procedure incorporates the recommendations described in the “Manual of Clinical Microbiology,”5th ed., edited by A. B. Balows et al., ASM, Washington, and is directed by the Federal Register, June 1994.
(§2) Stock cultures were transferred into TSB and incubated for 18-24 hours at 37±2° C. A second transfer was made onto TSA plates and were incubated for 18-24 hours at 37±2° C. The plates were removed from incubation and the bacterial growth washed from the agar surface using Butterfield's Phosphate Buffered Dilution Water (PBDW). The bacterial suspension was adjusted to contain approximately 10^8 Colony Forming Units (CFU)/ml with PBDW using spectrophometric methods extant in the laboratory.
(§3) The concentrated 9-decenoic acid was diluted 1:40 in filter sterilized isopropanol to yield a 2.5% stock solution. Subsequent dilutions to the 9-decenoic acid stock solutions were made with sterile Deionized Water (DI) to achieve concentrations of 0.1%, 0.05%, 0.01%, and 0.001%. The pH was determined for each dilution; pH values ranged from 4.4-4.1. Additionally, the 9-decenoic acid stock solution was adjusted to pH 7 with 1 N NaOH and serially diluted with sterile DI to achieve concentrations of 1.0%, 0.75% and 0.5%.
(§4) Compliant with the ASTM procedure cited, for each challenge microorganism a 9.9 ml aliquot of the prepared 9-decenoic acid suspension was added to a sterile tube. A 0.1 ml aliquot of the standardized inoculum was added to the 9-decenoic acid solution representing the start of the test exposure. The inoculated 9-decenoic acid solution was immediately mixed thoroughly. The inoculated suspension was held at room temperature for 0.5, 2, 5, 7 and 10 minute exposure times for tests run at ˜pH 4. The pH 7 tests were held at room temperature for 0.5 and 2 minutes.
(§5) At each exposure sample time, a 1.0 ml aliquot of the inoculated 9-decenoic acid suspension was transferred to 9.0 ml of D/E Neutralizing Broth. Additional ten-fold serial dilutions were made in PBDW and plated in duplicate on TSA. All plates were incubated for 48 hours at 37±2° C. and visually examined for growth. The plates are enumerated, recorded and log kill determined for each time point.
(§6) The following study controls were conducted: culture purity, neutralizer sterility, initial suspension population, test population, neutralization verification and a negative control using isopropanol. Culture purity was verified by performing a streak plate for isolated colonies on the each culture used. All cultures were determined to be pure based on consistent colony morphology typical for the test organism. The neutralizer sterility was confirmed by no growth in an incubated sample.
(§7) The population of the initial and test culture were determined by serial dilution, plating and enumerating after incubation. The initial suspension were determined to be ≧10^4 CFU/ml. The test culture population was used for calculation of the log reduction achieved at each time point.
(§8) Neutralization effectiveness was verified by a filtration test. For each organism, four tubes were prepared with 9 ml D/E Neutralizing Broth and fewer than 100 CFU/ml of the organism. A 1.0 ml aliquot of prepared 9-decenoic acid was added to each tube. Immediately, the entire contents of 2 tubes were filtered through a filtration apparatus and rinsed with sterile diluent. The remaining 2 tubes were held at room temperature for 30 minutes and then the entire contents were filtered using the same procedure. The filters were aseptically transferred to TSA plates and incubated for 48 hours at 37±2° C. and visually examined for growth.
(§9) This control was inoculated, subcultured and incubated as in the test procedure.

[2] = tested on: Escherichia coli 0157:H7, ATCC 43895; experiment: Time-Kill Procedure (ASTM), rate of kill; assay type: cell-based
Experimental: as §1, §2, §3, §4, §5, §6, §7, §8, §9

[3] = 0.01%, pH 4.4, exposure 0.5 minutes
[4] = 0.01%, pH 4.4, exposure 2 minutes
[5] = 0.01%, pH 4.4, exposure 5 minutes
[6] = 0.01%, pH 4.4, exposure 7 minutes
[7] = 0.01%, pH 4.4, exposure 10 minutes
[8] = 0.05%, pH 4.1, exposure 0.5 minutes
[9] = 0.05%, pH 4.1, exposure 2 minutes
[10] = 0.05%, pH 4.1, exposure 5 minutes
[11] = 0.05%, pH 4.1, exposure 7 minutes
[12] = 0.05%, pH 4.1, exposure 10 minutes
[13] = 0.1%, pH 4.1, exposure 0.5 minutes
[14] = 0.1%, pH 4.1, exposure 2 minutes
[15] = 0.1%, pH 4.1, exposure 5 minutes
[16] = 0.1%, pH 4.1, exposure 7 minutes
[17] = 0.1%, pH 4.1, exposure 10 minutes

In the case of C=CCCCCCCCC(=O)O [9-decenoic acid], the “Log reduction of organisms after exposure” value (“Log reduction of organisms” for short) [1, 3] is reported as 1.0 log, the “Log reduction of organisms” value [1, 4] is reported as 2.9 log and the “Log reduction of organisms” value [1, 5] is reported as greater than 6.7 log. For the same compound, the “Log reduction of organisms” value [1, 6] was greater than 6.7 log, the “Log reduction of organisms” value [1, 7] was greater than 6.7 log and the “Log reduction of organisms” value [1, 8] was greater than 6.7 log. For the same compound, the “Log reduction of organisms” value [1, 9] was greater than 6.7 log, the “Log reduction of organisms” value [1, 10] was greater than 6.7 log and the “Log reduction of organisms” value [1, 11] was greater than 6.7 log. The “Log reduction of organisms” value [1, 12] was greater than 6.7 log, the “Log reduction of organisms” value [1, 13] was greater than 6.7 log and the “Log reduction of organisms” value [1, 14] was greater than 6.7 log. For the same compound, the “Log reduction of organisms” value [1, 15] was greater than 6.7 log, the “Log reduction of organisms” value [1, 16] was greater than 6.7 log and the “Log reduction of organisms” value [1, 17] was greater than 6.7 log. The “Log reduction of organisms” value [2, 3] was 1.3 log, the “Log reduction of organisms” value [2, 4] was 1.6 log and the “Log reduction of organisms” value [2, 5] was 2.2 log. For the same compound, the “Log reduction of organisms” value [2, 6] was 1.8 log, the “Log reduction of organisms” value [2, 7] was 2.7 log and the “Log reduction of organisms” value [2, 8] was greater than 6.2 log. The “Log reduction of organisms” value [2, 9] was greater than 6.2 log, the “Log reduction of organisms” value [2, 10] was greater than 6.2 log and the “Log reduction of organisms” value [2, 11] was greater than 6.2 log. For the same compound, the “Log reduction of organisms” value [2, 12] was greater than 6.2 log, the “Log reduction of organisms” value [2, 13] was greater than 6.2 log and the “Log reduction of organisms” value [2, 14] was greater than 6.2 log. For the same compound, the “Log reduction of organisms” value [2, 15] was greater than 6.2 log, the “Log reduction of organisms” value [2, 16] was greater than 6.2 log and the “Log reduction of organisms” value [2, 17] was greater than 6.2 log.
